Data: patent US20210220494A1, “COMPOSITIONS AND METHODS FOR TARGETED PARTICLE PENETRATION, DISTRIBUTION, AND RESPONSE IN MALIGNANT BRAIN TUMORS” (Memorial Sloan Kettering Cancer Center, priority 2016, published 2021)

Columns and labels:
NSCLC CNS metastases = settings: pulsatile high-dose, cited from earlier work
macrophages = settings: cited from earlier work
ECLC26 flank tumor = settings: ECLC26 flank tumors, multi-dose, caliper measurements
Description: Tumor volume was measured using caliper measurements of the maximal dimensions of the tumor daily.
Nude mice were implanted with 2 million ECLC26 cells. Mice bearing tumors were treated by i.v. of 200 μL saline or 15 μM Gef-NDC for 2 doses of Gavage with 15 mg/ml Gefitinib, 10 μL/g for 10 days.

[1] = cited from earlier work

SMILES: C#Cc1cccc(Nc2ncnc3cc(OCCOC)c(OCCOC)cc23)c1 [erlotinib]
- response of CNS metastases (NSCLC CNS metastases; 3 patients): the response is unpredictable, even at high dose
- CNS penetration (NSCLC CNS metastases; patients): improves CNS penetration for NSCLC metastases

SMILES: CNC(=O)c1cc(Oc2ccc3nc(N[C@@H]4CCCC[C@H]4O)sc3c2)ccn1 [BLZ945]
- expression of M2 polarization markers in TAMs (macrophages): decreased expression of M2 polarization markers
- phagocytic activity of macrophages (macrophages): upregulated

SMILES: COc1cc2ncnc(Nc3ccc(F)c(Cl)c3)c2cc1OCCCN1CCOCC1 [Gefitinib, gefitinib]
- tumor volume over time (ECLC26 flank tumor): steady decrease in tumor volume
- protein binding [1]: highly protein bound
